Values quoted from earlier work, collected in US8445527B2, “Organic compounds and their uses” (Novartis AG, priority 2006, dated 2013).

Tested on: HCV
Conditions: ribavirin alone

## NC(=O)c1ncn([C@@H]2O[C@H](CO)[C@@H](O)[C@H]2O)n1 [Ribavirin, 1-β-D-ribofuranosyl-1-1,2,4-triazole-3-caroxamide]
  patients in whom serum amino transferase levels are reduced to normal: 40%
  serum levels of HCV-RNA: does not lower
